Source: patent US20210238169A1, “PROCESS FOR PREPARING A COMPOUND OF FORMULA (XIII)” (PULMOCIDE LIMITED, priority 2014, published 2021)
≈ marks a conversion by molar mass, not a printed value. Where two headings read alike, the source gives them in different places.

Columns and labels:
[1] = Fungus panel screening, CLSI broth microdilution; type: cell-based, Aspergillus pullulans; settings: Aspergillus
Description: (§1) Fungus panel screening was conducted by Eurofins Panlabs Inc. The MIC and MIC50 values of the test articles were determined following the guidelines of the Clinical and Laboratory Standards Institute, broth microdilution methods for yeast (CLSI M27-A2), (CLSI, 2002) and for filamentous fungi (CLSI M38-A), (CLSI, 2008).

[2] = test system: Aspergillus fumigatus isolates; experiment: Broth microdilution assay of planktonic fungal growth (modified EUCAST); type: cell-based; settings: Aspergillus fumigatus
Description: This assay was conducted using a modified method published by EUCAST (Rodriguez-Tudela et al., 2008). Spores of Aspergillus fumigatus (NCPF2010, NCPF7010 (Methionine 220 mutation), NCPF7099 (Glycine G54 mutation) from Public Health England, Wiltshire; TR34/L98H mutants from St Louis Hospital, Paris, France) were cultured in Sabouraud dextrose agar for 3 days. A stock spore suspension was prepared from a Sabouraud dextrose agar culture by washing with PBS-tween (10 mL; PBS containing 0.05% Tween-20, 100 U/mL Penicillin and 100 U/mL Streptomycin). The spore count was assessed using a Neubauer haemocytometer and then adjusted to 10^6 spores/mL with PBS. A working suspension of spores (2×10^5 spores/mL) was prepared in filter sterilised, BSA MOPS RPMI-1640 (50 mL; RPMI-1640 containing 2 mM L-glutamine, 0.5% BSA, 2% glucose, 0.165 M MOPS, buffered to pH 7 with NaOH). For the assay, BSA MOPS RPMI-1640 (50 μL/well) was added throughout the 384-well plate (Catalogue number 353962, BD Falcon, Oxford, UK) first. Test compounds (0.5 μL DMSO solution) were then added in quadruplicate using an Integra VIAFLO 96 (Integra, Zizers, Switzerland), and mixed well using a plate mixer. Subsequently 50 μL of the working spore suspension prepared above was added to all wells except non-spore control wells. For non-spore control wells, BSA MOPS-RPMI solution (50 μL/well) was added instead. The plate was covered with a plastic lid, and incubated (35° C. with ambient air) for 48 hr. The OD of each well at 530 nm was determined using a multi-scanner (Clariostar: BMG, Buckinghamshire, UK). The percentage inhibition for each well was calculated and the MIC50, MIC75 and MIC90 values were calculated from the concentration-response curve generated for each test compound.

[3] = test system: Aspergillus fumigatus (NCPF2010); experiment: Resazurin-microtitre assay of planktonic fungal growth; type: cell-based; settings: Aspergillus fumigatus; for MIC: read-out: Planktonic fungal growth MIC75
Description: This assay was conducted using a modified, published method (Monteiro et al., 2012). Spores of Aspergillus fumigatus (NCPF2010, Public Health England, Wiltshire) were cultured in Sabouraud dextrose agar for 3 days. A stock spore suspension was prepared from a Sabouraud dextrose agar culture by washing with PBS-tween (10 mL; PBS containing 0.05% Tween-20, 100 U/mL Penicillin and 100 U/mL Streptomycin). The spore count was assessed using a Neubauer haemocytometer and, using PBS, adjusted to 10^6 spores/mL. A working suspension of spores (10^4 spores/mL) was prepared in filter sterilised MOPS RPMI-1640 (50 mL; RPMI-1640 containing 2 mM L-glutamine, 2% glucose and 0.165 M MOPS, buffered to pH 7 with NaOH). Resazurin sodium salt (100 μL of 1% solution; Sigma-Aldrich, Dorset, UK) was added to the spore suspension and mixed well. The spore suspension-resazurin mixture (100 μL/well) was added to 384-well plates (Catalogue number 353962, BD Falcon, Oxford, UK). Simultaneously, test compounds (0.5 μL DMSO solution) were added to 100 μL of the spore-resazurin mixture in quadruplicate to provide a final DMSO solution of 0.5% using an Integra VIAFLO 96 (Intergra, Zizers, Switzerland). For non-spore control wells, MOPS-RPMI-resazurin solution (100 μL) was added instead of the spore-resazurin mixture. The plate was covered with a Breathe Easier membrane (Catalogue No Z763624, Sigma-Aldrich, Dorset, UK), and incubated (35° C., 5% CO2) until fluorescence in the inoculated wells was double that of the control wells (around 24 hr). The fluorescence of each well (545 nm (excitation)/590 nm (emission), gain 800, focal height 5.5 mm) was determined using a multi-scanner (Clariostar: BMG, Buckinghamshire, UK). The percentage inhibition for each well was calculated and the MIC50, MIC75 and MIC90 values were calculated from the concentration-response curve generated for each test compound.

[4] = test system: Aspergillus fumigatus isolates; experiment: Broth microdilution assay of planktonic fungal growth (modified EUCAST); type: cell-based; settings: Aspergillus fumigatus; isolate NCPF7100, broth microdilution; read-out: MIC75
Penicillium chrysogenum = experiment: Fungus panel screening, CLSI broth microdilution; type: cell-based; settings: strain ATCC9480, visual inspection (CLSI); for MIC: read-out: MIC100
Description: as §1

Candida albicans = experiment: Fungus panel screening, CLSI broth microdilution; type: cell-based; settings: for MIC50 / MIC: Candida albicans; for MIC: read-out: MIC100
Description: as §1

Rhizopus oryzae = experiment: Fungus panel screening, CLSI broth microdilution; type: cell-based; settings: Rhizopus arrhizus, strain ATCC11145, visual inspection (CLSI); for MIC: read-out: MIC100
Description: as §1

Aspergillus fumigatus = Aspergillus fumigatus infection of BEAS2B bronchial epithelial cells (GM in supernatant); type: cell-based
Description: BEAS2B cells were seeded in 96-well plates (100 μL; 30,000 cells/well; Catalogue No 3596, Sigma Aldrich, Dorset, UK) in 10% FBS RPMI-1640 and were then incubated (37° C., 5% CO2) for one day before experimentation. Test compounds (0.5 μL DMSO solution) or vehicle (DMSO) were added to each well to give a final DMSO concentration of 0.5%. BEAS2B cells were incubated with test compounds for 1 hr (35° C., 5% CO2) before infection with Aspergillus fumigatus (20 μL; Public Health England) conidia suspension (0.5×10^5/ml in 10% FBS RPMI-1640). The plate was incubated for 24 hr (35° C., 5% CO2). Supernatant (50 μL) was collected and transferred to a PCR plate (Catalogue No L1402-9700, Starlab, Milton Keynes, UK), which was frozen (−20° C.) until use. After thawing, supernatant (5 μL) was diluted 1:20 by adding R7-PBS solution (95 μL; 1:4 R7 to PBS; Bio-Rad Laboratories, Redmond, Wash., USA). GM levels in these samples (50 μL) were measured using Platelia GM-EIA kits (Bio-Rad Laboratories, Redmond, Wash., USA). The percentage inhibition for each well was calculated and the IC50 value was calculated from the concentration-response curve generated for each test compound.

[5] = strain ATCC9348, visual inspection (CLSI), read-out: MIC50
[6] = strain ATCC9348, visual inspection (CLSI), read-out: MIC100
[7] = isolate NCPF7099, broth microdilution, read-out: MIC75
[8] = ATCC10231, strain ATCC10231, visual inspection (CLSI)
[9] = strain 20183.073, visual inspection (CLSI)
[10] = strain 20186.025, visual inspection (CLSI)
[11] = strain 20240.047, visual inspection (CLSI)
[12] = strain ATCC10231, visual inspection (CLSI)

Compound | MIC50 [1, 5] | MIC [1, 6] | MIC ([2]; read-out: MIC75) | MIC [2, 7] | MIC50 [3] | MIC [3] | MIC [4] | MIC50 (Penicillium chrysogenum) | MIC (Penicillium chrysogenum) | MIC50 (Candida albicans; [8]) | MIC50 (Candida albicans; [9]) | MIC50 (Candida albicans; [10]) | MIC50 (Candida albicans; [11]) | MIC (Candida albicans; [11]) | MIC (Candida albicans; [12]) | MIC50 (Rhizopus oryzae) | MIC (Rhizopus oryzae) | MIC50 (Aspergillus fumigatus) | MIC100 (Candida albicans; [10]) | also measured
Cc1cc(N2CCN(c3ccc(C(=O)Nc4ccc(F)cc4)cc3)CC2)ccc1OC[C@@H]1CO[C@@](Cn2cncn2)(c2ccc(F)cc2F)C1 [Compound (I), 4-(4-(4-(((3R,5R)-5-((1H-1,2,4-triazol-1-yl)methyl)-5-(2,4-difluorophenyl)tetrahydrofuran-3-yl)methoxy)-3-methylphenyl)piperazin-1-yl)-N-(4-fluorophenyl)benzamide] | > 8 µg/mL | > 8 µg/mL | 0.0567 µM (≈ 0.0387 µg/mL) | 0.0165 µM (≈ 0.0113 µg/mL) | 0.00198 µM (≈ 0.00135 µg/mL) | 0.00502 µM (≈ 0.00343 µg/mL) | 0.0197 µM (≈ 0.0135 µg/mL) | 0.031 µg/mL (≈ 0.0454 µM) | > 8 µg/mL | 0.13 µg/mL (≈ 0.19 µM) | 0.5 µg/mL (≈ 0.732 µM) | > 8 µg/mL | 0.031 µg/mL (≈ 0.0454 µM) | > 8 µg/mL | > 8 µg/mL | 0.063 µg/mL (≈ 0.0923 µM) | 2 µg/mL (≈ 2.93 µM) | 0.00543 µM (≈ 0.00371 µg/mL) |  | MIC ([2]; NCPF2010, read-out: MIC75): 0.0136 µM (≈ 0.00929 µg/mL)
C[C@@H](c1ncncc1F)[C@](O)(Cn1cncn1)c1ccc(F)cc1F [Voriconazole] |  |  | > 2.86 µM | 0.0967 µM (≈ 0.0338 µg/mL) | 0.0908 µM (≈ 0.0317 µg/mL) | 0.168 µM (≈ 0.0587 µg/mL) | 0.596 µM (≈ 0.208 µg/mL) | 1 µg/mL (≈ 2.86 µM) | 2 µg/mL (≈ 5.73 µM) | 0.25 µg/mL (≈ 0.716 µM) | 4 µg/mL (≈ 11.5 µM) | > 8 µg/mL | 0.031 µg/mL (≈ 0.0887 µM) | > 8 µg/mL | > 8 µg/mL | 8 µg/mL (≈ 22.9 µM) | > 8 µg/mL | 0.154 µM (≈ 0.0538 µg/mL) | >8.0 µg/mL | MIC50 ([1]; ATCC9348): > 8 µg/mL; MIC ([1]; ATCC9348, read-out: MIC100): > 8 µg/mL
CC[C@@H]([C@H](C)O)n1ncn(-c2ccc(N3CCN(c4ccc(OC[C@@H]5CO[C@@](Cn6cncn6)(c6ccc(F)cc6F)C5)cc4)CC3)cc2)c1=O [Posaconazole] | 0.25 µg/mL (≈ 0.357 µM) | 1 µg/mL (≈ 1.43 µM) | 0.15 µM (≈ 0.105 µg/mL) | 0.112 µM (≈ 0.0785 µg/mL) | 0.00364 µM (≈ 0.00255 µg/mL) | 0.00694 µM (≈ 0.00486 µg/mL) | 0.0715 µM (≈ 0.0501 µg/mL) | 0.063 µg/mL (≈ 0.0899 µM) | 0.13 µg/mL (≈ 0.186 µM) | 0.13 µg/mL (≈ 0.186 µM) | 0.25 µg/mL (≈ 0.357 µM) | > 8 µg/mL | 0.031 µg/mL (≈ 0.0442 µM) | > 8 µg/mL | > 8 µg/mL | 0.13 µg/mL (≈ 0.186 µM) | > 8 µg/mL | 0.00448 µM (≈ 0.00314 µg/mL) | >8.0 µg/mL | 
